Source: US9017692B2, “Antimicrobial agent, bacterial strain, biosynthesis, and methods of use” (priority 2011, dated 2015)
In brackets after ≈: the same amount, converted by molar mass. Where two headings read alike, the source gives them in different places.

Columns and labels:
[1] = tested on: WT ATCC 29212 EFS.43; test: microbe, parasite or virus in culture
Method: (§1) The activity of paenibacterin against several strains of Gram-positive and Gram-negative foodborne pathogens is summarized in Table 10. The data is reported as minimum inhibitory concentrations (MIC) as an average of three replicates for paenibacterin against the various listed bacterial strains. […] MICs were determined according to the CLSI broth microdilution method (see, Clinical and Laboratory Standards Institute (CLSI). 2009. Methods for dilution antimicrobial susceptibility tests for bacteria that grow aerobically; approved standard. […]. CLSI, Wayne, Pa.). Briefly, HPLC-purified paenibacterin was dissolved in methanol and diluted to appropriate concentration with cation-adjusted Mueller-Hinton II broth (Difco). Aliquots (25 μl) of serially-diluted paenibacterin was dispensed into wells of a 96-well plate; an equal amount of 1/10 diluted overnight bacterial culture was added to wells. Plates were incubated at 35° C. for 24 h. Cell growth after incubation was examined and determined using a microtiter plate reader at 600 nm. Concentration of paenibacterin is determined based on a molecular weight of 1604 Da.
(§2) The activity of paenibacterin was further tested against clinical isolates of the following Gram-positive bacteria: methicillin-sensitive Staphylococcus aureus (MSSA), methicillin-resistant S. aureus (MRSA), vancomycin-sensitive Enterococcus faecalis, vancomycin-resistant E. faecalis (VRE), Streptococcus pneumoniae, and laboratory derived daptomycin-resistant (DR) MSSA, MRSA, and VRE strains. The MICs were determined using the above described CLSI broth microdilution method, in which the method was performed with non-binding surface coated (NBS) 96-well plates.

[2] = tested on: MSSA ATCC 29213 SAU.42; test: microbe, parasite or virus in culture
Method: as §1, §2

[3] = tested on: DR-MSSA from SAU.42 SAU.278; test: microbe, parasite or virus in culture; settings: SAU.278, DR-MSSA from SAU.42; NBS 96-well plates
Method: as §1, §2

[4] = tested on: WT ATCC 49619 SPN.31; test: microbe, parasite or virus in culture; settings: ATCC 49619
Method: as §1, §2

[5] = tested on: MRSA ATCC 43300 SAU.399; test: microbe, parasite or virus in culture; settings: ATCC 43300
Method: as §1, §2

[6] = tested on: DR-VRE from EFS.807 EFS.2731; test: microbe, parasite or virus in culture; settings: EFS.2731, DR-VRE from EFS.807; NBS 96-well plates
Method: as §1, §2

[7] = tested on: DS-VRE ATCC 700802 EFS.807; test: microbe, parasite or virus in culture
Method: as §1, §2

[8] = tested on: DR-MRSA from MW2 SP SAU.1616; test: microbe, parasite or virus in culture; settings: SAU.1616, DR-MRSA from MW2 SP; NBS 96-well plates
Method: as §1, §2

[9] = tested on: KPN.2317; test: MIC, CLSI broth microdilution, Gram-negative clinical isolates; assay type: cell-based, Klebsiella pneumoniae; settings: for MIC: Klebsiella pneumoniae, read-out: Minimum inhibitory concentration (MIC)
Method: (§3) Plates were incubated at 35° C. for 24 h.
(§4) The activity of paenibacterin was also tested against clinical isolates of the following Gram-negative bacterial strains: four strains of the species Pseudomonas aeruginosa (PAE), three strains of the species Acinetobacter baumannii (ABA), two strains of the species Escherichia coli (ECO), and four strains of the species Klebsiella pneumoniae (KPN). Particularly, the strains of Gram-negative bacteria included polymyxin B-resistant (PMB-R) and polymyxin B-sensitive (PMB-S) strains of each above listed species. The MICs were determined using the above described CLSI broth microdilution method, in which the method was performed with both non-binding surface coated (NBS) and polystyrene (PS) 96-well plates (Tables 11 and 12, respectively). The MICs were generally lower in the NBS 96-well plates as compared to the PS 96-well plates.

[10] = tested on: PMB-R, KPN.2463; test: as above; assay type: cell-based, Klebsiella pneumoniae
Method: as §3, §4

[11] = tested on: KPN.674; test: as above; assay type: cell-based, Klebsiella pneumoniae; settings: Klebsiella pneumoniae, read-out: Minimum inhibitory concentration (MIC)
Method: as §3, §4

[12] = tested on: PMB-S, KPN.2461; test: as above; assay type: cell-based, Klebsiella pneumoniae
Method: as §3, §4

[13] = tested on: PAE.2325; test: as above; assay type: cell-based, Pseudomonas aeruginosa; settings: Pseudomonas aeruginosa, read-out: Minimum inhibitory concentration (MIC)
Method: as §3, §4

[14] = tested on: PAE.999; test: as above; assay type: cell-based, Pseudomonas aeruginosa; settings: Pseudomonas aeruginosa, read-out: Minimum inhibitory concentration (MIC)
Method: as §3, §4

[15] = tested on: PAE.44; test: as above; assay type: cell-based, Pseudomonas aeruginosa; settings: Pseudomonas aeruginosa, non-binding surface coated (NBS) 96-well plates, read-out: Minimum inhibitory concentration (MIC)
Method: as §3, §4

[16] = tested on: PAE.2281; test: as above; assay type: cell-based, Pseudomonas aeruginosa; settings: Pseudomonas aeruginosa, read-out: Minimum inhibitory concentration (MIC)
Method: as §3, §4

[17] = tested on: ECO.2276; test: as above; assay type: cell-based, Escherichia coli; settings: Escherichia coli, read-out: Minimum inhibitory concentration (MIC)
Method: as §3, §4

[18] = tested on: ATCC 25922 ECO.35; test: as above; assay type: cell-based, Escherichia coli; settings: Escherichia coli, read-out: Minimum inhibitory concentration (MIC)
Method: as §3, §4

[19] = tested on: ABA.2315; test: as above; assay type: cell-based, Acinetobacter baumannii
Method: as §3, §4

[20] = tested on: ABA.1570; test: as above; assay type: cell-based, Acinetobacter baumannii; settings: Acinetobacter baumannii, read-out: Minimum inhibitory concentration (MIC)
Method: as §3, §4

[21] = tested on: ABA.2232; test: as above; assay type: cell-based, Acinetobacter baumannii; settings: Acinetobacter baumannii, read-out: Minimum inhibitory concentration (MIC)
Method: as §3, §4

In the case of `CCCCCCCCCC(=O)N[C@@H](Cc1c[nH]c2ccccc12)C(=O)N[C@H](CC(N)=O)C(=O)N[C@@H](CC(=O)O)C(=O)N[C@@H]1C(=O)NCC(=O)N[C@@H](CCCN)C(=O)N[C@@H](CC(=O)O)C(=O)N[C@H](C)C(=O)N[C@@H](CC(=O)O)C(=O)NCC(=O)N[C@H](CO)C(=O)N[C@@H]([C@H](C)CC(=O)O)C(=O)N[C@@H](CC(=O)c2ccccc2N)C(=O)O[C@@H]1C` [daptomycin], the “Minimum inhibitory concentration (MIC)” value ([1]; ATCC 29212) is reported as 2 µg/mL (≈ 1.23 µM), the “Minimum inhibitory concentration (MIC)” value ([2]; ATCC 29213) is reported as 0.5 µg/mL (≈ 0.309 µM) and the “Minimum inhibitory concentration (MIC)” value [3] is reported as 8 µg/mL (≈ 4.94 µM). The “Minimum inhibitory concentration (MIC)” value [4] was 0.5 µg/mL (≈ 0.309 µM), the “Minimum inhibitory concentration (MIC)” value [5] was 0.5 µg/mL (≈ 0.309 µM) and the “Minimum inhibitory concentration (MIC)” value [6] was over 32 µg/mL. The “Minimum inhibitory concentration (MIC)” value ([7]; ATCC 700802) was 1 µg/mL (≈ 0.617 µM) and the “Minimum inhibitory concentration (MIC)” value [8] was 16 µg/mL (≈ 9.87 µM).

In the case of `C[C@@H](O)[C@H]1C(=O)N2C(C(=O)O)=C(S[C@@H]3CN[C@H](C(=O)N(C)C)C3)[C@H](C)[C@H]12` [meropenem #413, meropenem], the MIC ([9]; NBS 96-well plates) is reported as 0.0625 µg/mL (≈ 0.163 µM), the MIC ([9]; PS 96-well plates) is reported as 0.03 µg/mL (≈ 0.0782 µM) and the “Minimum inhibitory concentration (MIC)” value ([9]; NBS 96-well plates) is reported as 0.06 µg/mL (≈ 0.156 µM). The “Minimum inhibitory concentration (MIC)” value ([10]; KPN.2463, PS 96-well plates) was over 8 µg/mL, the MIC ([10]; Klebsiella pneumoniae, KPN.2463 (PMB-R), NBS 96-well plates, read-out: Minimum inhibitory concentration (MIC)) was over 8 µg/mL and the MIC ([11]; NBS 96-well plates) was 0.0625 µg/mL (≈ 0.163 µM). The MIC ([11]; PS 96-well plates) was 0.03 µg/mL (≈ 0.0782 µM), the “Minimum inhibitory concentration (MIC)” value ([12]; KPN.2461, PS 96-well plates) was over 8 µg/mL and the MIC ([12]; Klebsiella pneumoniae, KPN.2461 (PMB-S), NBS 96-well plates, read-out: Minimum inhibitory concentration (MIC)) was over 8 µg/mL. For the same compound, the MIC ([13]; NBS 96-well plates) was 2 to 4 µg/mL (≈ 5.22 to 10.4 µM), the MIC ([13]; PS 96-well plates) was 2 µg/mL (≈ 5.22 µM) and the MIC ([14]; NBS 96-well plates) was over 8 µg/mL. The MIC ([14]; PS 96-well plates) was over 8 µg/mL, the MIC [15] was 1 µg/mL (≈ 2.61 µM) and the MIC ([16]; NBS 96-well plates) was 1 to 2 µg/mL (≈ 2.61 to 5.22 µM). The MIC ([16]; PS 96-well plates) was 0.5 µg/mL (≈ 1.3 µM), the MIC ([17]; NBS 96-well plates) was 0.03 to 0.06 µg/mL (≈ 0.0782 to 0.156 µM) and the MIC ([17]; PS 96-well plates) was 0.03 µg/mL (≈ 0.0782 µM). The MIC ([18]; ATCC25922, ECO.35 (ATCC 25922), NBS 96-well plates) was 0.03 µg/mL (≈ 0.0782 µM), the MIC ([18]; ATCC25922, ECO.35, PS 96-well plates) was 0.016 µg/mL (≈ 0.0417 µM) and the MIC ([19]; Acinetobacter baumannii, NBS 96-well plates, read-out: Minimum inhibitory concentration (MIC)) was over 8 µg/mL. The “Minimum inhibitory concentration (MIC)” value ([19]; PS 96-well plates) was over 8 µg/mL, the MIC ([20]; NBS 96-well plates) was 8 µg/mL (≈ 20.9 µM) and the MIC ([20]; PS 96-well plates) was over 8 µg/mL. For the same compound, the MIC ([21]; NBS 96-well plates) was 0.125 to 0.25 µg/mL (≈ 0.326 to 0.652 µM), the MIC ([21]; PS 96-well plates) was 0.5 µg/mL (≈ 1.3 µM) and the MIC ([1]; Enterococcus faecalis, ATCC29212, read-out: Minimum inhibitory concentration (MIC)) was 2 µg/mL (≈ 5.22 µM). The MIC ([2]; Staphylococcus aureus, ATCC29213|MSSA, read-out: Minimum inhibitory concentration (MIC)) was 0.125 µg/mL (≈ 0.326 µM) and the MIC ([7]; Enterococcus faecalis, ATCC700802|VRE, read-out: Minimum inhibitory concentration (MIC)) was 4 µg/mL (≈ 10.4 µM).
